Data on two molecules can be found in article PMC4076210, “Discovery of Novel AKT Inhibitors with Enhanced Anti-Tumor Effects in Combination with the MEK Inhibitor” (PLoS ONE, 2014).

Read-outs that look alike come from different tables or passages of the source.

Experiment in all cases: Kinase panel
Common to all, as to format: biochemical

The target in one assay is T1, PDGFRα(D842V)(h) (Homo sapiens, UniProt P16234, D842V).
T1 construct: purchased Millipore KinaseProfiler

For another assay, the target named is T2, MRCKβ(h) (Homo sapiens, UniProt Q9Y5S2).
T2 construct: purchased Millipore KinaseProfiler

Another assay concerns the target T3, Src(1-530)(h) (Homo sapiens, UniProt P12931).
T3 construct: purchased Millipore KinaseProfiler

The target in a further assay is T4, MAPKAP-K2(h) (Homo sapiens, UniProt P49137).
T4 construct: purchased Millipore KinaseProfiler

In a further assay the target is T5, EphA7(h) (Homo sapiens, UniProt Q15375).
T5 construct: purchased Millipore KinaseProfiler

The next assay deals with T6, Abl(Y253F)(h) (Homo sapiens, UniProt P00519, Y253F).
T6 construct: purchased Millipore KinaseProfiler

In a further assay the target is T7, TAO2(h) (Homo sapiens, UniProt Q9UL54).
T7 construct: purchased Millipore KinaseProfiler
T7 sequence (Q9UL54 1-1235): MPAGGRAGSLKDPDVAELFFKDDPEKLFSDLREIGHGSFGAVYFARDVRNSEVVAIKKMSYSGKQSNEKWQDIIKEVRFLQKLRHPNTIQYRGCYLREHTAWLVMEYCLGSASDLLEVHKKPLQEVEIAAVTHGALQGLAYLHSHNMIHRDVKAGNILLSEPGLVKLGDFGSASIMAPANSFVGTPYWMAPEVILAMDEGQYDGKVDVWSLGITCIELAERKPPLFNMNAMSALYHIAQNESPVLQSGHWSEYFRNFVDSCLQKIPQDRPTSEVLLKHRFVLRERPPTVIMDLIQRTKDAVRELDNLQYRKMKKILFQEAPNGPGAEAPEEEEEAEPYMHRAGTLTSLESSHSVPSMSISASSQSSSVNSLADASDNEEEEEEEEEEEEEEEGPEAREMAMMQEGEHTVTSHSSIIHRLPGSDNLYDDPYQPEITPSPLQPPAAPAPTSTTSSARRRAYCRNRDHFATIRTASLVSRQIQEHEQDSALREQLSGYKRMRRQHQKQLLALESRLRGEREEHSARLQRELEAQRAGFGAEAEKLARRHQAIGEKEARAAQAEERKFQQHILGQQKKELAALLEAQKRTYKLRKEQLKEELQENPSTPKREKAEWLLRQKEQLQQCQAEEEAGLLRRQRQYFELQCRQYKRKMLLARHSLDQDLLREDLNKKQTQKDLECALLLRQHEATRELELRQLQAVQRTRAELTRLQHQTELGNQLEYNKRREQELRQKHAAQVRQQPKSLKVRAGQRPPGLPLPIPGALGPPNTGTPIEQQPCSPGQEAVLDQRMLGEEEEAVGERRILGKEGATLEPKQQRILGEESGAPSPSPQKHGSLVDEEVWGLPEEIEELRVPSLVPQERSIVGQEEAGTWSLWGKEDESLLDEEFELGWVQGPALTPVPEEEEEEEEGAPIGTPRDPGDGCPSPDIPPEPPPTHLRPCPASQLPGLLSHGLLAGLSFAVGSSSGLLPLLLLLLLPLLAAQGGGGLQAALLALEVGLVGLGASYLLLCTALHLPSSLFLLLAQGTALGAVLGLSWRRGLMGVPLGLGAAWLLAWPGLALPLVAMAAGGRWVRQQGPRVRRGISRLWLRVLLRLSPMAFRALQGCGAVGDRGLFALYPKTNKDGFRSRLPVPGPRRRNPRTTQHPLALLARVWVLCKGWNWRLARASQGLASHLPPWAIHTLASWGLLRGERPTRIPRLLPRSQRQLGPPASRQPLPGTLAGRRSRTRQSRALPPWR

The next assay deals with T8, IKKα(h) (Homo sapiens, UniProt O15111).
T8 construct: purchased Millipore KinaseProfiler
T8 sequence (O15111 1-745): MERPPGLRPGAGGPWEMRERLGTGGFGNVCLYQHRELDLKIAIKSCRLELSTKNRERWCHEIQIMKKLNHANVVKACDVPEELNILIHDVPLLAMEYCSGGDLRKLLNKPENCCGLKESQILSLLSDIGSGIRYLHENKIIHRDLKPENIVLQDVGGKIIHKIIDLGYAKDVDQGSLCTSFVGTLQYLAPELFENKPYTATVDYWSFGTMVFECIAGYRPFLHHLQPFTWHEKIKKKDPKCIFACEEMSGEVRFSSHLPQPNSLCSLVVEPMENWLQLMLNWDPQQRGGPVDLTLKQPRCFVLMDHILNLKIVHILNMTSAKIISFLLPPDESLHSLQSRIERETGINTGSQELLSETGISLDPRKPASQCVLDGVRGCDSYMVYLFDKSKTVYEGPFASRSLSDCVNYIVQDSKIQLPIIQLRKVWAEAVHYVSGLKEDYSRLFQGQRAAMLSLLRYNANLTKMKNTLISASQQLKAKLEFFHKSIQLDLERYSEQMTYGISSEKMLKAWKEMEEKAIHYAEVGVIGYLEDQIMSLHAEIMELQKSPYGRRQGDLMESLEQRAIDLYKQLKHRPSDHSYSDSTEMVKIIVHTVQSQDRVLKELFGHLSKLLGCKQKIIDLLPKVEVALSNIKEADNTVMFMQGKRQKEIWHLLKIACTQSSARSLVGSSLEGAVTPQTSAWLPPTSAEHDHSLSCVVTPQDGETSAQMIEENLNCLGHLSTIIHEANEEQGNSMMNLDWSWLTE

A further assay addresses T9, SRPK2(h) (Homo sapiens, UniProt P78362).
T9 construct: purchased Millipore KinaseProfiler

The target in a further assay is T10, EGFR(h) (Homo sapiens, UniProt P00533).
T10 construct: purchased Millipore KinaseProfiler

The target in a further assay is T11, Fes(h) (Homo sapiens, UniProt P07332).
T11 construct: purchased Millipore KinaseProfiler

T4 sequence (P49137 whole entry): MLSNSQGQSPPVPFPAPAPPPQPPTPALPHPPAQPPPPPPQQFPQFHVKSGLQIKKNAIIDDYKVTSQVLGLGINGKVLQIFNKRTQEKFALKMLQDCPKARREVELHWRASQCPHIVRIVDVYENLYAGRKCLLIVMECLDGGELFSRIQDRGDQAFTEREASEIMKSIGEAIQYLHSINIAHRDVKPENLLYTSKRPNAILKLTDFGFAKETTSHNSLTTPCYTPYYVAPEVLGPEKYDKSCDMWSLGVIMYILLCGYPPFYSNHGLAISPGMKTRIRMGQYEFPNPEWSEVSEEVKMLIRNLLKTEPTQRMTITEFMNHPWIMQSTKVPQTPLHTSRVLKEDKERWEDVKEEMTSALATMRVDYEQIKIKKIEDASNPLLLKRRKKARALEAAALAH
T2 sequence (Q9Y5S2 whole entry): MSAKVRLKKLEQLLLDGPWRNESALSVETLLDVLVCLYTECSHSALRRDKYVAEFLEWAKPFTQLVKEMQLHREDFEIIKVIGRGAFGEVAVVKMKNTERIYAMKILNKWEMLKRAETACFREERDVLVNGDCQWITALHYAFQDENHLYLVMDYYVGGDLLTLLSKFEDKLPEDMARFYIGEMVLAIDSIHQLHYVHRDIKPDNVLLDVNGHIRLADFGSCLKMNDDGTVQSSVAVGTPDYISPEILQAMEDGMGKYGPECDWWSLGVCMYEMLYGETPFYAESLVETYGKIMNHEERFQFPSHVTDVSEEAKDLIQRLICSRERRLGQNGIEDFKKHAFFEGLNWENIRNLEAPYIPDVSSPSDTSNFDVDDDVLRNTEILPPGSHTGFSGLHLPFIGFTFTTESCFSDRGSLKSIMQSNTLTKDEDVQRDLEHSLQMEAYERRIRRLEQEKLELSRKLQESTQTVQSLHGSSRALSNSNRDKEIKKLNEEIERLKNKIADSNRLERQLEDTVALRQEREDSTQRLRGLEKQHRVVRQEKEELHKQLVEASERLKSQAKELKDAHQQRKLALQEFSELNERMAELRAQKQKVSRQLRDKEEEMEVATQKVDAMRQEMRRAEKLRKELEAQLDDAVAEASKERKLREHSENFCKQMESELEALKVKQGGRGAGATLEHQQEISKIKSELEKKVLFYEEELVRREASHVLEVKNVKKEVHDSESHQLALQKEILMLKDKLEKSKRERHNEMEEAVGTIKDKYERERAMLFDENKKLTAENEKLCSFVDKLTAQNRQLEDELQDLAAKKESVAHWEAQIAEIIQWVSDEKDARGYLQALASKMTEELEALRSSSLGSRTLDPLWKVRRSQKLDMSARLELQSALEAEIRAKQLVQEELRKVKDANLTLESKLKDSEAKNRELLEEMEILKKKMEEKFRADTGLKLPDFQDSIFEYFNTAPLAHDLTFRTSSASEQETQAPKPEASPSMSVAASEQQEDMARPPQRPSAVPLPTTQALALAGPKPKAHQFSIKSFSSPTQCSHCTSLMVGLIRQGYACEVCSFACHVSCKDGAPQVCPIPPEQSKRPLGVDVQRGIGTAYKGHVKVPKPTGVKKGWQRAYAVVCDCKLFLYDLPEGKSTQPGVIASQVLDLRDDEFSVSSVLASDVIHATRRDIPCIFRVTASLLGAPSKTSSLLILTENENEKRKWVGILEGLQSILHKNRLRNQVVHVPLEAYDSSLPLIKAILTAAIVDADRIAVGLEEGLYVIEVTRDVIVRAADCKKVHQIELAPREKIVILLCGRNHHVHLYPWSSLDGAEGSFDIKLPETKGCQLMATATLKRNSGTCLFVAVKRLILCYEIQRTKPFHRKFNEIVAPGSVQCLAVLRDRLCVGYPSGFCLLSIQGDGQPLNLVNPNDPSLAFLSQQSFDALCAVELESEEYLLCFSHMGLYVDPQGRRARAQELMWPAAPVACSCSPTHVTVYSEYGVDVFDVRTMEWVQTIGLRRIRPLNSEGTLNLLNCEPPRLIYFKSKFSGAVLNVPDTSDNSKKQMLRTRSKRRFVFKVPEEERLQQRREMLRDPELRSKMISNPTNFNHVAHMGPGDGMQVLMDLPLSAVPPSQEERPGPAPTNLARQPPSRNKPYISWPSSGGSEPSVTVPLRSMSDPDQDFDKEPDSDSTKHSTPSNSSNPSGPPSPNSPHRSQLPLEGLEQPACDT
T10 sequence (P00533 25-1210): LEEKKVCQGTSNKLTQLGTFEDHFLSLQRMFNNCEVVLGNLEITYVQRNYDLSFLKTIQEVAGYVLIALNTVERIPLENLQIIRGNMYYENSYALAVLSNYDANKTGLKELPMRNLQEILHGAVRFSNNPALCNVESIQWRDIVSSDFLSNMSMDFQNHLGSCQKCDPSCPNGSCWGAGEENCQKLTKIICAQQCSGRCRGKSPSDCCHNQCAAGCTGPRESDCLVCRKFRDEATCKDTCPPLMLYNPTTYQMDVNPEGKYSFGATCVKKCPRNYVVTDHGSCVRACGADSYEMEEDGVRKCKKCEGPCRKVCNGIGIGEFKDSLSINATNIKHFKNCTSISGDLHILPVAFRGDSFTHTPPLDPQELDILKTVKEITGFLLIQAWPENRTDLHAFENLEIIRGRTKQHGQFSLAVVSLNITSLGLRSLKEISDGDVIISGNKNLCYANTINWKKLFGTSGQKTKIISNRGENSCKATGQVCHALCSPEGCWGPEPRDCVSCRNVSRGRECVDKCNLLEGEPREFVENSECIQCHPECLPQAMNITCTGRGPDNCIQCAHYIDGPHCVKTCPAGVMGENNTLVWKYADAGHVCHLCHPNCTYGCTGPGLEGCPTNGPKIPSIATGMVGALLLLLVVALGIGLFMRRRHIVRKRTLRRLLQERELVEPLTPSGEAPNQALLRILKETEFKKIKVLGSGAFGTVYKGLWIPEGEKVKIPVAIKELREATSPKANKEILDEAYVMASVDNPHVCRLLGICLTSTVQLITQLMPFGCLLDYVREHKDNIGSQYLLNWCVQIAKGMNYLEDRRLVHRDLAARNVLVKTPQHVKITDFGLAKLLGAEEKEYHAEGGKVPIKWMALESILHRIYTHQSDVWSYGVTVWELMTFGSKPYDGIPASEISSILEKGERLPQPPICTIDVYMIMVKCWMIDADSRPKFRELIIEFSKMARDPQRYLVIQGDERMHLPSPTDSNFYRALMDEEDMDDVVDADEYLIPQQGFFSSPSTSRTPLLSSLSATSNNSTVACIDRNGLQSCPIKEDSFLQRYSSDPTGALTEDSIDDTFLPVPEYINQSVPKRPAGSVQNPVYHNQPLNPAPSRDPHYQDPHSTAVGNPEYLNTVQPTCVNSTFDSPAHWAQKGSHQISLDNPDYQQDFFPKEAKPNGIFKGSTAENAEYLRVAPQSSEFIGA
T1 sequence (P16234 24-1089 D842V): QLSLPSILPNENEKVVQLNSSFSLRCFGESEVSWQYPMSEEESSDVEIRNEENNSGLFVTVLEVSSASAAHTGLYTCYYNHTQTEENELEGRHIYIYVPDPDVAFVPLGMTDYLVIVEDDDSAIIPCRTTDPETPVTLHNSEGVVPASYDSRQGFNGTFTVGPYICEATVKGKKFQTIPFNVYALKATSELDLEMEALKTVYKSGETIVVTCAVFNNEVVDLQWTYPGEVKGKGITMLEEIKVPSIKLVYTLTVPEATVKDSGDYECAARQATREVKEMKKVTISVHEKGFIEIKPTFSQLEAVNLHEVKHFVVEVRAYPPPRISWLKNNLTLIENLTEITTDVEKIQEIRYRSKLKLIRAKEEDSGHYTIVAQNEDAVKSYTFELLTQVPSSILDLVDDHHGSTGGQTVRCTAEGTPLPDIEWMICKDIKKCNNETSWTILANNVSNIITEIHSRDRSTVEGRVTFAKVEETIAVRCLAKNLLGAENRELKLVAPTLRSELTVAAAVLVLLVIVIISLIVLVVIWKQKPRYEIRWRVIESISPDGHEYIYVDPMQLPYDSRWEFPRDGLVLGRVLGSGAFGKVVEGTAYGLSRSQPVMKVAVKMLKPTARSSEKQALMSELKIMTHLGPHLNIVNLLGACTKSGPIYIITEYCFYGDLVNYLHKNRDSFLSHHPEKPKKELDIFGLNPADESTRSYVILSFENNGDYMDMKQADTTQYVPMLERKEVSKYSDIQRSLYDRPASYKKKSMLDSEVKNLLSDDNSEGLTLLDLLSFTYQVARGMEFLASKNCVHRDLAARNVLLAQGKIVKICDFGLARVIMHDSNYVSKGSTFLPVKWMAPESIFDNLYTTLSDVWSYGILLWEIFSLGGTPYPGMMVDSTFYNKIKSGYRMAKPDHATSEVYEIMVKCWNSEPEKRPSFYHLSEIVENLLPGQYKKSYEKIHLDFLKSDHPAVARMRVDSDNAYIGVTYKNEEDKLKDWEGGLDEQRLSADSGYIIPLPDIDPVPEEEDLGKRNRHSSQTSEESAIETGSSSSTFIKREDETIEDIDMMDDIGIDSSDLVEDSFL
T9 sequence (P78362 whole entry): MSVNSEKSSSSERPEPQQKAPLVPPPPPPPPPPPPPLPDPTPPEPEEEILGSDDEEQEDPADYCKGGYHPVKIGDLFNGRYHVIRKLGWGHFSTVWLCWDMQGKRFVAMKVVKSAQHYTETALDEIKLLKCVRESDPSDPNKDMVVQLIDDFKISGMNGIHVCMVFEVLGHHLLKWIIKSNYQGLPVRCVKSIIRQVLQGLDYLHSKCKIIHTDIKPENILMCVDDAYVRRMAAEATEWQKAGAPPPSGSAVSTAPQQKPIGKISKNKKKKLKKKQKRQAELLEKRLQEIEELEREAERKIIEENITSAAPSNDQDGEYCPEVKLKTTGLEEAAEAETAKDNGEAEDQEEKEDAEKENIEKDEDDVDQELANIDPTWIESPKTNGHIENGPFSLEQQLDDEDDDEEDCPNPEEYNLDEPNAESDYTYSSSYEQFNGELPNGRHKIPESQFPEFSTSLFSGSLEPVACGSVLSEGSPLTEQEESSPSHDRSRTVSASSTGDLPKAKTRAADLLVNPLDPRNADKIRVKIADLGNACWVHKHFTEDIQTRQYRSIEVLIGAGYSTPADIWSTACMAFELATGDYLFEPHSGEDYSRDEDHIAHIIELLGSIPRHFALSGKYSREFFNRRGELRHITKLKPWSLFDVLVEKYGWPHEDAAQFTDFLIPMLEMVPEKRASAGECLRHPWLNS

Broadly, the inhibition is the drop in the measured response relative to a control, in per cent. For `Cn1ncc(Cl)c1-c1cc(C(=O)N[C@H](CN)Cc2cccc(F)c2)sc1Cl` [GSK2110183], the inhibition at 0.5 µM against PDGFRα(D842V)(h) was -16%; at MRCKβ(h) it was -4%; on Src(1-530)(h), -12%; against MAPKAP-K2(h), -11%; against EphA7(h) it was -4%; at Abl(Y253F)(h) it was 2%. Further, the inhibition at 0.5 µM at TAO2(h) is -7%; on IKKα(h), 9%; at SRPK2(h) it was 26%; on EGFR(h) it was -4%; at Fes(h), 9%. Also, the inhibition at 10 µM is -4% on PDGFRα(D842V)(h); 11% against MRCKβ(h); 61% against Src(1-530)(h); 4% against MAPKAP-K2(h); 8% against EphA7(h); 9% against Abl(Y253F)(h). Further, the inhibition at 10 µM turned out to be 12% against TAO2(h); 8% against IKKα(h); 37% against SRPK2(h); 2% against EGFR(h); 48% at Fes(h).
Turning to `Cn1ncc(Cl)c1-c1cc(C(=O)N[C@H](CN)Cc2ccc(F)c(F)c2)oc1Cl` [GSK2141795], the inhibition at 0.5 µM at PDGFRα(D842V)(h) (0.5 µM, read-out: % Inhibition) is -5%; at MRCKβ(h) (0.5 µM, read-out: % Inhibition), -8%; at Src(1-530)(h) (0.5 µM, read-out: % Inhibition), -30%; at MAPKAP-K2(h) (0.5 µM, read-out: % Inhibition), -6%; on EphA7(h) (0.5 µM, read-out: % Inhibition), -3%; on Abl(Y253F)(h) (0.5 µM, read-out: % Inhibition), -18%. Besides, the inhibition at 0.5 µM is -5% on TAO2(h) (0.5 µM, read-out: % Inhibition); -12% at IKKα(h) (0.5 µM, read-out: % Inhibition); 1% on SRPK2(h) (0.5 µM, read-out: % Inhibition); -42% on EGFR(h) (0.5 µM, read-out: % Inhibition); 0% on Fes(h) (0.5 µM, read-out: % Inhibition). Moreover, the inhibition at 10 µM on PDGFRα(D842V)(h) (10 µM, read-out: % Inhibition) is 15%; on MRCKβ(h) (10 µM, read-out: % Inhibition) it was 3%; on Src(1-530)(h) (10 µM, read-out: % Inhibition), 30%; on MAPKAP-K2(h) (10 µM, read-out: % Inhibition), -12%; at EphA7(h) (10 µM, read-out: % Inhibition) it was 16%; at Abl(Y253F)(h) (10 µM, read-out: % Inhibition) it was -11%. Moreover, the inhibition at 10 µM on TAO2(h) (10 µM, read-out: % Inhibition) was -2%; on IKKα(h) (10 µM, read-out: % Inhibition) it was 6%; on SRPK2(h) (10 µM, read-out: % Inhibition), 27%; at EGFR(h) (10 µM, read-out: % Inhibition), -40%; on Fes(h) (10 µM, read-out: % Inhibition), 80%.
